Experimental data published in patent US10626105B2, “Deuterium-substituted pyridin- and pyrimidin-2-yl-methylamine compounds” (Auspex Pharmaceuticals, Inc., priority 2016, dated 2020).

test: In vitro human liver microsomal stability assay; type: in vitro ADME; settings: human liver microsomes 0.5 mg/mL protein, NADPH 2 mM, pH 7.4, 1 μM test compound, 37 °C, 0-45 min; change relative to non-deuterated (d0) comparative compound
Experimental: In Vitro Liver Microsomal Stability Assay
Human liver microsomal stability assays were conducted at 0.5 mg per mL liver microsome protein with NADPH (2 mM, pH 7.4). Test compounds were prepared as solutions in DMSO and added to the assay mixture (1 μM, final concentration in incubation) to be incubated at 37±1° C. Reactions were initiated with the addition of cofactor and are stopped at 0, 5, 15, 30, and 45 min after cofactor addition with stop reagent (acetonitrile). After quenching, plates containing samples are vibrated for 10 min (600 rpm/min) and then centrifuged at 5594 g for 15 min. Supernatant fractions were analyzed by LC-MS/MS to determine the percent remaining and estimate the degradation half-life of the test compounds.

With `Cc1ccc(CNCC2(F)CCN(C(=O)c3ccc(F)c(Cl)c3)CC2)nc1` [Example 1, (3-chloro-4-fluorophenyl)(4-fluoro-4-((((5-methylpyridin-2-yl)methyl)amino)methyl)piperidin-1-yl)methanone, reference compound] as the compound, how does the “Clearance % change over d0” value read?
Its value is 0%.

What about the “Half-life % change over d0” value of the same compound?
The value was 0%.

With `[2H]C([2H])(NCc1ccc(C)cn1)C1(F)CCN(C(=O)c2ccc(F)c(Cl)c2)CC1` [Example 2, (3-chloro-4-fluorophenyl)(4-fluoro-4-((((5-methylpyridin-2-yl)methyl)amino)methyl-d2)piperidin-1-yl)methanone] as the compound, how does the “Clearance % change over d0” value read?
The value was −7.5%.

And the “Half-life % change over d0” value?
The value was 8.4%.

For `[2H]C([2H])([2H])c1ccc(CNCC2(F)CCN(C(=O)c3ccc(F)c(Cl)c3)CC2)nc1` [Example 3, (3-chloro-4-fluorophenyl)(4-fluoro-4-((((5-(methyl-d3)pyridin-2-yl)methyl)amino)methyl)piperidin-1-yl)methanone], which “Clearance % change over d0” value is on record?
The value was −5. %.

And the “Half-life % change over d0” value?
The value was 5.6%.

Which “Clearance % change over d0” value does the source give for `[2H]C([2H])([2H])c1ccc(C([2H])([2H])NCC2(F)CCN(C(=O)c3ccc(F)c(Cl)c3)CC2)nc1` [Example 4, (3-chloro-4-fluorophenyl)(4-fluoro-4-((((5-(methyl-d3)pyridin-2-yl)methyl-d2)amino)methyl)piperidin-1-yl)methanone] here?
Its value is −5.1%.

And the “Half-life % change over d0” value?
Its value is 5.4%.

For `[2H]C([2H])(NCC1(F)CCN(C(=O)c2ccc(F)c(Cl)c2)CC1)c1ccc(C)cn1` [Example 5, (3-chloro-4-fluorophenyl)(4-fluoro-4-((((5-methylpyridin-2-yl)methyl-d2)amino)methyl)piperidin-1-yl)methanone], which “Clearance % change over d0” value is on record?
The value was −6.7%.

And the “Half-life % change over d0” value?
Its value is 7.2%.

What does the source list for `[2H]C([2H])([2H])c1ccc(C([2H])([2H])NC([2H])([2H])C2(F)CCN(C(=O)c3ccc(F)c(Cl)c3)CC2)nc1` [Example 6, (3-chloro-4-fluorophenyl)(4-fluoro-4-((((5-(methyl-d3)pyridin-2-yl)methyl-d2)amino)methyl-d2)piperidin-1-yl)methanone]?
Clearance % change over d0: −9.1%; Half-life % change over d0: 10.0%

With `[2H]C(NCc1ccc(C)cn1)C1(F)C([2H])([2H])C([2H])([2H])N(C(=O)c2ccc(F)c(Cl)c2)C([2H])([2H])C1([2H])[2H]` (centres unmarked) [Example 7, ([1-[(3-chloro-4-fluorophenyl)carbonyl]-4-fluoro(d8)piperidin-4-yl](d)methyl)[(5-methylpyridin-2-yl)methyl]amine] as the compound, how does the “Clearance % change over d0” value read?
Its value is −5.8%.

What about the “Half-life % change over d0” value of the same compound?
The value was 6.2%.

For `Cc1cnc(CNCC2(F)CCN(C(=O)c3ccc(F)c(Cl)c3)CC2)nc1` [Example 8, (3-chloro-4-fluorophenyl)(4-fluoro-4-((((5-methylpyrimidin-2-yl)methyl)amino)methyl)piperidin-1-yl)methanone, reference compound], which “Clearance % change over d0” value is on record?
The value was 0%.

And the “Half-life % change over d0” value?
The value was 0%.

Which “Clearance % change over d0” value does the source give for `[2H]C([2H])(NCC1(F)CCN(C(=O)c2ccc(F)c(Cl)c2)CC1)c1ncc(C)cn1` [Example 9, (3-chloro-4-fluorophenyl)(4-fluoro-4-((((5-methylpyrimidin-2-yl)methyl-d2)amino)methyl)piperidin-1-yl)methanone] here?
Its value is 3.7%.

What about the “Half-life % change over d0” value of the same compound?
The value was −3.5%.

For `[2H]C([2H])([2H])c1cnc(CNCC2(F)CCN(C(=O)c3ccc(F)c(Cl)c3)CC2)nc1` [Example 10, (3-chloro-4-fluorophenyl)(4-fluoro-4-((((5-(methyl-d3)pyrimidin-2-yl)methyl)amino)methyl)piperidin-1-yl)methanone], which “Clearance % change over d0” value is on record?
Its value is 8.4%.

And the “Half-life % change over d0” value?
The value was −7.7%.

Which results are given for `[2H]C([2H])([2H])c1cnc(C([2H])([2H])NCC2(F)CCN(C(=O)c3ccc(F)c(Cl)c3)CC2)nc1` [Example 11, (3-chloro-4-fluorophenyl)(4-fluoro-4-((((5-(methyl-d3)pyrimidin-2-yl)methyl-d2)amino)methyl)piperidin-1-yl)methanone]?
Clearance % change over d0: 5.5%; Half-life % change over d0: −5.2%

For `[2H]C([2H])(NCc1ncc(C)cn1)C1(F)CCN(C(=O)c2ccc(F)c(Cl)c2)CC1` [Example 12, (3-chloro-4-fluorophenyl)(4-fluoro-4-((((5-methylpyrimidin-2-yl)methyl)amino)methyl-d2)piperidin-1-yl)methanone], which “Clearance % change over d0” value is on record?
Its value is 2.1%.

And the “Half-life % change over d0” value?
The value was −2.1%.

With `[2H]C(NCc1ncc(C)cn1)C1(F)C([2H])([2H])C([2H])([2H])N(C(=O)c2ccc(F)c(Cl)c2)C([2H])([2H])C1([2H])[2H]` (centres unmarked) [Example 13, ([1-[(3-chloro-4-fluorophenyl)carbonyl]-4-fluoro(d8)piperidin-4-yl](d)methyl)[(5-methylpyrimidin-2-yl)methyl]amine] as the compound, how does the “Clearance % change over d0” value read?
The value was −0.9%.

What about the “Half-life % change over d0” value of the same compound?
The value was 0.9%.
